Columns and labels:
Type in all cases: in vivo, New Zealand White rabbits
[1] = test system: main artery fatty streak / arterial endothelium; experiment: Analysis for fatty streak in the main artery of cholesterol-fed rabbits
Protocol: (§1) 24 three-month-old New Zealand White rabbits (Yeonam Horticulture and Animal Husbandry College, Korea), each weighing about 2.5 to 2.6 kg, were raised under a condition of temperature 20±2° C., relative humidity 55±5%, and photoperiod 12L/12D. […] RC4 diet comprises 7.6% moisture, 22.8% crude protein, 2.8% crude fat, 8.8% crude ash, 14.4% crude cellulose and 43.6% soluble nitrogen-free substances.
The chest of each of the rabbits sacrificed in Step 2 was incised. The downward portion of the main artery from the site 1 cm above the aortic valve was cut out in a length of about 5 cm and the fat surrounding the main artery was removed. The main artery was incised in the middle along the longitudinal axis and pinned to a dish. The moist artery was photographed and, then, the staining of fatty streaks was carried out in accordance with the method of Esper, E., et al. (J. Lab. Clin. Med., 121, 103-110 (1993)) as follows.
A part of the incised main artery was washed three times with anhydrous propylene glycol for 2 min and stained for 30 min. with a saturated solution of Oil Red O (ORO, Sigma Co.) dissolved in propylene glycol. Thereafter, the artery was washed twice with 85% propylene glycol for 3 min. to remove remaining staining solution and, then washed with physiological saline. The artery was photographed and the photograph was traced. The area of stained region (fatty streak region) was determined with an image analyzer (LEICA, Q-600, Germany) and its proportion (%) to the total arterial area was calculated.

[2] = Chemical analysis of blood of rabbits fed 1% cholesterol diets; conditions: 1% cholesterol diet plus 0.1% rutin or quercetin or 1 mg/kg Lovastatin, 6 weeks
Protocol: 24 three-month-old New Zealand White rabbits (Yeonam Horticulture and Animal Husbandry College, Korea), each weighing about 2.5 to 2.6 kg, were raised under a condition of temperature 20±2° C., relative humidity 55±5%, and photoperiod 12L/12D. […] RC4 diet comprises 7.6% moisture, 22.8% crude protein, 2.8% crude fat, 8.8% crude ash, 14.4% crude cellulose and 43.6% soluble nitrogen-free substances. Rutin and quercetin were purchased from Sigma Co. (St. Louis, Mo.).
The rabbits were fed for 6 weeks while being allowed free access to the diets and water.
After six weeks, the rabbits were anesthetized with an intramuscular injection of ketamine (50 mg/kg) in the femoral region and sacrificed. A blood sample was taken from the heart of each rabbit, allowed to stand for 2 hours and centrifuged at 3,000 rpm for 15 minutes and the supernatant serum was separated and stored in a freezer before use.
The chemical analysis of blood was carried out by employing a blood chemical analyzer (CIBA Corning 550 Express, USA) to determine the changes in GOT, GPT, γ-GTP, total cholesterol and triglyceride levels.

[3] = test system: liver cells around the central vein; experiment: Microscopic grading of abnormal fat-containing cells in the liver of cholesterol-fed rabbits; conditions: 1% cholesterol plus 1 mg/kg Lovastatin or 0.1% rutin
Protocol: as §1

CC[C@H](C)C(=O)O[C@H]1C[C@@H](C)C=C2C=C[C@H](C)[C@H](CC[C@@H]3C[C@@H](O)CC(=O)O3)[C@H]21 [Lovastatin ®, Lovastatin, reference compound]
A: Proportion (%) of fatty streak region to the total arterial area ([1]; 1% cholesterol diet plus 0.1% rutin or quercetin or 1 mg/kg Lovastatin, 6 weeks, Oil Red O staining): 5% | layer of macrophage-lipid complex on the arterial endothelium (FIGS. 1B, 1C) ([1]; 1% cholesterol plus 1 mg/kg Lovastatin or 0.1% rutin): no or very thin layers | TG (triglyceride) [2]: 65.6 mg/dL | Total-C (total cholesterol) [2]: 1209.5 mg/dL | microscopic features of the liver (FIGS. 2B, 2C) [3]: many cells containing excessive fat
